In patent US12516016B2, “GPX4 inhibitors, pharmaceutical compositions thereof, and their use for treating GPX4-mediated diseases” (EUBULUS BIOTHERAPEUTICS (HONG KONG) LIMITED, priority 2020, dated 2026):

system: hepatocellular carcinoma cell line Hub-7; test: Cell proliferation assay (CELL-TITER GLO cell viability); type: cell-based; conditions: 24 h, Hub-7 cells, 24 h incubation, read-out: Inhibition of Cell Proliferation EC50
Description: The activity of a test compound was determined in a cell proliferation assay using the hepatocellular carcinoma cell line […]. Cells (4,000 cells per well) were seeded in a 96-well tissue culture plate. After incubated overnight, a test compound was added at predetermined concentrations, starting with 10 μM and followed by 3-fold serial dilution. After the cells were incubated for 24 h, cell viability was determined using a CELL-TITER GLO® assay. The CELL-TITER GLO® reagent (50 μL) was added to each well and the luminescence was measured by a multimode microplate reader after a brief period of shaking. EC50 values were determined for the test compound. The results are summarized in Table 1, wherein A represents a value no greater than 100 nM, B represents a value greater than 100 nM but no greater than 500 nM, C represents a value greater than 500 nM but no greater than 2 μM, D represents a value greater than 2 μM but no greater than 10 μM; and E represents a value greater than 10 μM.

| EC50 [nM] | Compound |
| --- | --- |
| 2000 to 10000 | C#CC(=O)N(c1cccc(NC(C)=O)c1)C(C(=O)NCc1ccccc1)c1ccc(N)cc1 (stereo not shown) [A63, N-(3-Acetamidophenyl)-N-(1-(4-aminophenyl)-2-(benzylamino)-2-oxoethyl)-propiolamide] |
| 2000 to 10000 | C#CC(=O)N(c1ccc(O)cc1)C(C(=O)NCc1ccccc1)c1ccc(N)cc1 (stereo not shown) [A64, N-(1-(4-Aminophenyl)-2-(benzylamino)-2-oxoethyl)-N-(4-hydroxyphenyl)-propiolamide] |
| ≤ 100 | C#CC(=O)N(c1ccc(Cl)c(Cl)c1)C(C(=O)NCc1ccccc1)c1ccc(N)cc1 (stereo not shown) [A65, N-(1-(4-Aminophenyl)-2-(benzylamino)-2-oxoethyl)-N-(3,4-dichlorophenyl)-propiolamide] |
| ≤ 100 | C#CC(=O)N(c1ccc(C#N)cc1)C(C(=O)NCc1ccccc1)c1ccc(N)cc1 (stereo not shown) [A66, N-(1-(4-Aminophenyl)-2-(benzylamino)-2-oxoethyl)-N-(4-cyanophenyl)-propiolamide] |
| 500 to 2000 | C#CC(=O)N(c1ccc(CO)cc1)C(C(=O)NCc1ccccc1)c1ccc(N)cc1 (stereo not shown) [A67, N-(1-(4-Aminophenyl)-2-(benzylamino)-2-oxoethyl)-N-(4-(hydroxymethyl)-phenyl)propiolamide] |
| > 10000 | C#CC(=O)N(c1ccc(S(N)(=O)=O)cc1)C(C(=O)NCc1ccccc1)c1ccc(N)cc1 (stereo not shown) [A68, N-(1-(4-Aminophenyl)-2-(benzylamino)-2-oxoethyl)-N-(4-sulfamoylphenyl)-propiolamide] |
| ≤ 100 | C#CC(=O)N(c1ccc(C(=O)OC)cc1)C(C(=O)NCc1ccccc1)c1ccc(N)cc1 (stereo not shown) [A69, Methyl 4-(N-(1-(4-aminophenyl)-2-(benzylamino)-2-oxoethyl)propiolamido)-benzoate] |
| 500 to 2000 | C#CC(=O)N(c1cccc(N)c1)C(C(=O)NCc1ccccc1)c1ccc(N)cc1 (stereo not shown) [A70, N-(3-Aminophenyl)-N-(1-(4-aminophenyl)-2-(benzylamino)-2-oxoethyl)-propiolamide] |
| 2000 to 10000 | C#CC(=O)N(c1ccc(NS(C)(=O)=O)cc1)C(C(=O)NCc1ccccc1)c1ccc(N)cc1 (stereo not shown) [A71, N-(1-(4-Aminophenyl)-2-(benzylamino)-2-oxoethyl)-N-(4-(methylsulfonamido)-phenyl)propiolamide] |
| 100 to 500 | C#CC(=O)N(c1cccc(Cl)c1)C(C(=O)NCc1ccccc1)C1CC1 (stereo not shown) [A72, N-(2-(benzylamino)-1-cyclopropyl-2-oxoethyl)-N-(3-chlorophenyl)propiolamide] |
| ≤ 100 | C#CC(=O)N(c1cccc(C(=O)OC)c1)C(C(=O)NCc1ccccc1)c1cccs1 (stereo not shown) [A73, Methyl 3-(N-(2-(benzylamino)-2-oxo-1-(thiophen-2-yl)ethyl)propiolamido)-benzoate] |
| ≤ 100 | C#CC(=O)N(c1cccc(Cl)c1)C(C(=O)NCc1ccccc1)c1ccccc1 (stereo not shown) [A74, N-(2-(Benzylamino)-2-oxo-1-phenylethyl)-N-(3-chlorophenyl)propiolamide] |
| ≤ 100 | C#CC(=O)N(c1cccc(Cl)c1)C(C(=O)NCc1ccccc1)c1cccs1 (stereo not shown) [A75, N-(2-(Benzylamino)-2-oxo-1-(thiophen-2-yl)ethyl)-N-(3-chlorophenyl)-propiolamide] |
| ≤ 100 | C#CC(=O)N(c1cccc(C(=O)OC)c1)C(C(=O)NCc1ccccc1)c1ccccc1 (stereo not shown) [A76, Methyl 3-(N-(2-(benzylamino)-2-oxo-1-phenylethyl)propiolamido)benzoate] |
| 100 to 500 | C#CC(=O)N(c1cccc(Cl)c1)C(C(=O)NCc1ccccc1)C1CCC(C(=O)OC)CC1 (stereo not shown) [A77, Methyl 4-(2-(benzylamino)-1-(N-(3-chlorophenyl)propiolamido)-2-oxoethyl)-cyclohexane-1-carboxylate] |
| 500 to 2000 | C#CC(=O)N(c1cccc(Cl)c1)C(C(=O)NCc1ccccc1)C1CCOCC1 (stereo not shown) [A78, N-(2-(Benzylamino)-2-oxo-1-(tetrahydro-2H-pyran-4-yl)ethyl)-N-(3-chloro-phenyl)propiolamide] |
| ≤ 100 | C#CC(=O)N(c1cccc(Cl)c1)C1(C(=O)NCc2ccccc2)CCC(C(=O)OC)CC1 (stereo not shown) [A79, Methyl 4-(benzylcarbamoyl)-4-(N-(3-chlorophenyl)propiolamido)-cyclohexane-carboxylate] |
| 100 to 500 | C#CC(=O)N(c1cccc(Cl)c1F)C(C(=O)NCc1ccccc1)c1ccccc1 (stereo not shown) [A81, N-(2-(Benzylamino)-2-oxo-1-phenylethyl)-N-(3-chloro-2-fluorophenyl)-propiolamide] |
| ≤ 100 | C#CC(=O)N(c1cccc(Cl)c1Cl)C(C(=O)NCc1ccccc1)c1ccccc1 (stereo not shown) [A82, N-(2-(Benzylamino)-2-oxo-1-phenylethyl)-N-(2,3-dichlorophenyl)-propiolamide] |
| 100 to 500 | C#CC(=O)N(c1cccc(Cl)c1)C(C(=O)NCc1ccccc1)c1cccc(OCC(=O)OC)c1 (stereo not shown) [A83, Methyl 2-(3-(2-(benzylamino)-1-(N-(3-chlorophenyl)propiolamido)-2-oxoethyl)-phenoxy)acetate] |

| EC50 [nM] | Compound |
| --- | --- |
| 100 to 500 | C#CC(=O)N(Cc1ccc(C(=O)OC)cc1)C(C)C(=O)NCc1ccccc1 (stereo not shown) [A84, Methyl 4-((N-(1-(benzylamino)-1-oxopropan-2-yl)propiolamido)methyl)-benzoate] |
| ≤ 100 | C#CC(=O)N(c1cccc2nsnc12)C(C(=O)NCc1ccccc1)c1ccccc1 (stereo not shown) [A85, N-(Benzo[c][1,2,5]thiadiazol-4-yl)-N-(2-(benzylamino)-2-oxo-1-phenylethyl)-propiolamide] |
| 100 to 500 | C#CC(=O)N(c1cccc(Cl)c1)C1(C(=O)NCc2ccccc2)COC1 [A86, N-Benzyl-3-(N-(3-chlorophenyl)propiolamido)oxetane-3-carboxamide] |
| ≤ 100 | C#CC(=O)N(c1cccc(Cl)c1)C(C(=O)NCc1ccccc1)c1ccc(F)cc1 (stereo not shown) [A87, N-(2-(Benzylamino)-1-(4-fluorophenyl)-2-oxoethyl)-N-(3-chlorophenyl)-propiolamide] |
| ≤ 100 | C#CC(=O)N(c1ccc2scnc2c1)C(C(=O)NCc1ccccc1)c1ccccc1 (stereo not shown) [A88, N-(Benzo[d]thiazol-5-yl)-N-(2-(benzylamino)-2-oxo-1-phenylethyl)-propiolamide] |
| ≤ 100 | C#CC(=O)N(c1cccc2c1CCC2=O)C(C(=O)NCc1ccccc1)c1ccccc1 (stereo not shown) [A89, N-(2-(Benzylamino)-2-oxo-1-phenylethyl)-N-(1-oxo-2,3-dihydro-1H-inden-4-yl)propiolamide] |
| ≤ 100 | C#CC(=O)N(c1cccc(Cl)c1)C(C(=O)NCc1ccccc1)c1ccccc1F (stereo not shown) [A90, N-(2-(Benzylamino)-1-(2-fluorophenyl)-2-oxoethyl)-N-(3-chlorophenyl)-propiolamide] |
| ≤ 100 | C#CC(=O)N(c1cc(Cl)ccc1I)C(C(=O)NCc1ccccc1)c1ccccc1 (stereo not shown) [A91, N-(2-(Benzylamino)-2-oxo-1-phenylethyl)-N-(5-chloro-2-iodophenyl)-propiolamide] |
| 100 to 500 | C#CC(=O)N(c1cccc(S(C)(=O)=O)c1)C(C(=O)NCc1ccccc1)c1ccccc1 (stereo not shown) [A92, N-(2-(Benzylamino)-2-oxo-1-phenylethyl)-N-(3-(methylsulfonyl)-phenyl)-propiolamide] |
| ≤ 100 | C#CC(=O)N(c1ccc(OC)c(Cl)c1)C(C(=O)NCc1ccccc1)c1ccccc1 (stereo not shown) [A93, N-(2-(Benzylamino)-2-oxo-1-phenylethyl)-N-(3-chloro-4-methoxyphenyl)-propiolamide] |
| ≤ 100 | C#CC(=O)N(c1ccc2nsnc2c1)C(C(=O)NCc1ccccc1)c1ccccc1 (stereo not shown) [A94, N-(Benzo[c][1,2,5]thiadiazol-5-yl)-N-(2-(benzylamino)-2-oxo-1-phenylethyl)-propiolamide] |
| 100 to 500 | C#CC(=O)N(c1cccc(Cl)c1)C(C(=O)NCc1ccccc1)c1cccc(CCO)c1 (stereo not shown) [A95, N-(2-(Benzylamino)-1-(3-(2-hydroxyethyl)phenyl)-2-oxoethyl)-N-(3-chloro-phenyl)propiolamide] |
| ≤ 100 | C#CC(=O)N(c1ccc2c(c1)OCO2)C(C(=O)NCc1ccccc1)c1ccccc1 (stereo not shown) [A96, N-(Benzo[d][1,3]dioxol-5-yl)-N-(2-(benzylamino)-2-oxo-1-phenylethyl)-propiolamide] |
| 100 to 500 | C#CC(=O)N(c1cccc2c1OCO2)C(C(=O)NCc1ccccc1)c1ccccc1 (stereo not shown) [A97, N-(Benzo[d][1,3]dioxol-4-yl)-N-(2-(benzylamino)-2-oxo-1-phenylethyl)-propiolamide] |
| 100 to 500 | C#CC(=O)N(c1ccc2ncsc2c1)C(C(=O)NCc1ccccc1)c1ccccc1 (stereo not shown) [A98, N-(Benzo[d]thiazol-6-yl)-N-(2-(benzylamino)-2-oxo-1-phenylethyl)-propiolamide] |
| ≤ 100 | C#CC(=O)N(c1ccc2c(c1)OC(F)(F)O2)C(C(=O)NCc1ccccc1)c1ccccc1 (stereo not shown) [A99, N-(2-(Benzylamino)-2-oxo-1-phenylethyl)-N-(2,2-difluorobenzo[d][1,3]dioxol-5-yl)propiolamide] |
| ≤ 100 | C#CC(=O)N(c1cccc(C#N)c1)C(C(=O)NCc1ccccc1)c1ccccc1 (stereo not shown) [A100, N-(2-(Benzylamino)-2-oxo-1-phenylethyl)-N-(3-cyanophenyl)propiolamide] |
| ≤ 100 | C#CC(=O)N(c1cccc(Cl)c1)C1(C(=O)NCc2ccccc2)CCCCC1 [A101, N-Benzyl-1-(N-(3-chlorophenyl)propiolamido)cyclohexanecarboxamide] |
| 2000 to 10000 | C#CC(=O)N(c1ccn(C)c(=O)c1)C(C(=O)NCc1ccccc1)c1ccccc1 (stereo not shown) [A102, N-(2-(Benzylamino)-2-oxo-1-phenylethyl)-N-(1-methyl-2-oxo-1,2-dihydropyridin-4-yl)propiolamide] |
| ≤ 100 | C#CC(=O)N(c1cccc(Cl)c1)C1(C(=O)NCc2ccccc2)CCC(F)(F)CC1 [A103, N-Benzyl-1-(N-(3-chlorophenyl)propiolamido)-4,4-difluorocyclohexane-carboxamide] |
